# Assay results taken from article PMC6199744, “Development of Chemical Proteomics for the Folateome and Analysis of the Kinetoplastid Folateome” (ACS Infectious Diseases, 2018).
# Tested on: L. major lysate proteins
# Assay: Multitargeted bead mixture chemoproteomics, single concentration competition, proteome-wide
# Format: binding
smiles,measurement,setting,value
"Nc1nc2c(c(=O)[nH]1)N(C=O)C(CNc1ccc(C(=O)N[C@@H](CCC(=O)O)C(=O)O)cc1)CN2 (stereo partly drawn) [LEU, leucovorin]",fold change relative to vehicle control,"protein LMJF.35.1220, SHORT CHAIN DEHYDROGENASE, PUTATIVE",1.29
same,fold change relative to vehicle control,"protein LMJF.35.1380, MITOCHONDRIAL PROCESSING PEPTIDASE, BETA SUBUNIT, PUTATIVE",0.96
same,fold change vs vehicle control,"protein LMJF.35.1830 HY[…], CONSERVED",1.03
same,fold change vs vehicle control,protein LMJF.35.3340 6-phosphogluconate dehydrogenase,1.03
same,fold change,"protein LMJF.35.3700 GIM5A PROTEIN, PUTATIVE,GLYCOSOMAL MEMBRANE PROTEIN, vehicle control = 1",0.87
same,fold change vs vehicle control,"protein LMJF.35.3760 60S RIBOSOMAL PROTEIN L27A/L29, PUTATIVE",1.05
same,fold change relative to vehicle control,"protein LMJF.35.3840, […] 2 SUBUNIT, PUTATIVE",1.16
same,fold change vs vehicle control,"protein LMJF.35.3860 T-COMPLEX PROTEIN 1, ETA SUBUNIT, PUTATIVE",0.98
same,fold change,"protein LMJF.35.4420 MITOCHONDRIAL PHOSPHATE TRANSPORTER, PUTATIVE, vehicle control = 1",1
same,fold change relative to vehicle control,"protein LMJF.35.4880, HYPOTHETICAL PROTEIN, CONSERVED (TPR repeat, putative)",1.3
same,fold change relative to vehicle control,"protein LMJF.35.5330, ISOPENTENYL-D[…]-ISOMERASE, PUTATIVE",1.06
same,fold change relative to vehicle control,"protein LMJF.36.0070, STRESS-INDUCIBLE PROTEIN STI1 HOMOLOG",1.81
same,fold change,"protein LMJF.36.0480 HYPOTHETICAL PROTEIN, CONSERVED, vehicle control = 1",1
same,fold change vs vehicle control,"protein LMJF.36.0620 HYPOTHETICAL PROTEIN, CONSERVED",0.9
same,fold change vs vehicle control,"protein LMJF.36.0930 40S RIBOSOMAL PROTEIN S18, PUTATIVE",1.19
same,fold change vs vehicle control,"protein LMJF.36.0990 40S RIBOSOMAL PROTEIN S10, PUTATIVE",0.91
same,fold change,"protein LMJF.36.1140 SHORT CHAIN 3-HYDROXYACYL-COA DEHYDROGENASE, PUTATIVE, vehicle control = 1",0.94
same,fold change relative to vehicle control,"protein LMJF.36.1260, FRUCTOSE-1,6-BI[…]",1.16
same,fold change,"protein LMJF.36.1340 N-ACETYLTRANSFERASE SUBUNIT NAT1, PUTATIVE, vehicle control = 1",0.92
same,fold change vs vehicle control,"protein LMJF.36.1650 PROTEASOME BETA 5 SUBUNIT, PUTATIVE",0.98
same,fold change relative to vehicle control,"protein LMJF.36.2380, STEROL 24-C-METHYLTRANSFERASE, PUTATIVE",1.04
same,fold change vs vehicle control,"protein LMJF.36.2950 SUCCINYL-COA LIGASE GDP-FORMING] BETA-CHAIN, PUTATIVE",0.96
same,fold change vs vehicle control,protein LMJF.36.3210 14-3-3 PROTEIN-LIKE PROTEIN,1.08
same,fold change vs vehicle control,protein LMJF.36.3410 SHORT CHAIN DEHYDROGENASE-LIKE PROTEIN,0.97
same,fold change,"protein LMJF.36.3460 HYPOTHETICAL PROTEIN, CONSERVED (NIPSNAP, putative), vehicle control = 1",0.75
same,fold change,"protein LMJF.36.3580 HYPOTHETICAL PROTEIN, CONSERVED (Protein of unknown function (DUF2009), putative), vehicle control = 1",0.85
same,fold change,"protein LMJF.36.3750 40S RIBOSOMAL PROTEIN S27-1, PUTATIVE, vehicle control = 1",0.85
same,fold change vs vehicle control,protein LMJF.36.3910 S-ADENOSYLHOMOCYSTEINE HYDROLASE,0.94
same,fold change vs vehicle control,"protein LMJF.36.5010 40S RIBOSOMAL PROTEIN SA, PUTATIVE",1.03
same,fold change vs vehicle control,"protein LMJF.36.5130 HY[…], CONSERVED",1.01
same,fold change vs vehicle control,"protein LMJF.36.5150 HYPOTHETICAL PROTEIN, CONSERVED",0.93
same,fold change relative to vehicle control,"protein LMJF.36.5380, NADH DEHYDROGENASE, PUTATIVE",1.07
same,fold change vs vehicle control,"protein LMJF.36.5390 PHOSPHORIBOSYLPYROPHOSPHATE SYNTHETASE, PUTATIVE",0.99
same,fold change vs vehicle control,"protein LMJF.36.5620 ISOLEUCYL-TRNA SYNTHETASE, PUTATIVE",0.94
same,fold change,"protein LMJF.36.6430 PROTEIN TRANSPORT PROTEIN SEC23-LIKE PROTEIN, vehicle control = 1",1.17
same,fold change vs vehicle control,"protein LMJF.36.6760 HYPOTHETICAL PROTEIN, CONSERVED",0.87
same,fold change relative to vehicle control,"protein LMJF.[…], MIT[…] BETA SUBUNIT, PUTATIVE",1.14
same,fold change relative to vehicle control,"protein LMJF.[…], POLY(A) EXPORT PROTEIN, PUTATIVE",1.24
same,fold change,"vs vehicle control, protein LINJ.20.0630 CYTIDINE TRIPHOSPHATE SYNTHASE, PUTATIVE,CTP SYNTHASE, PUTATIVE",0.91
same,fold change,"vs vehicle control, protein LINJ.20.1390 COATOMER BETA SUBUNIT, PUTATIVE",0.96
same,fold change,"vs vehicle control, protein LMJF.05.1140 VACUOLAR ATPASE SUBUNIT-LIKE PROTEIN",0.75
same,fold change,"vs vehicle control, protein LMJF.07.1090 DELTA-5 FATTY ACID DESATURASE",0.88
same,fold change,"vs vehicle control, protein LMJF.09.0220 HYPOTHETICAL PROTEIN, CONSERVED",0.73
same,fold change,"vs vehicle control, protein LMJF.11.1030 HYPOTHETICAL PROTEIN, CONSERVED",0.86
same,fold change,"vs vehicle control, protein LMJF.14.0640 FATTY ACID ELONGASE, PUTATIVE",0.71
same,fold change,"vs vehicle control, protein LMJF.14.0705 FATTY ACID ELONGASE, PUTATIVE",0.92
same,fold change,"vs vehicle control, protein LMJF.14.1120 KINESIN K39, PUTATIVE",0.96
same,fold change,"vs vehicle control, protein LMJF.16.1610 PROHIBITIN",1.01
same,fold change,"vs vehicle control, protein LMJF.17.0010 HYPOTHETICAL PROTEIN, CONSERVED",0.94
same,fold change,"vs vehicle control, protein LMJF.18.1130 RAS-RELATED PROTEIN RAB-5, PUTATIVE",0.82
same,fold change,"vs vehicle control, protein LMJF.19.1420 CYSTEINE PEPTIDASE A (CPA)",0.84
same,fold change,"vs vehicle control, protein LMJF.21.0280 HY[…], CONSERVED",0.97
same,fold change,"vs vehicle control, protein LMJF.22.1560 40S RIBOSOMAL PROTEIN L14, PUTATIVE",0.93
same,fold change,"vs vehicle control, protein LMJF.23.1220 T-COMPLEX PROTEIN 1, GAMMA SUBUNIT, PUTATIVE",0.94
same,fold change,"vs vehicle control, protein LMJF.24.0370 ASPARTATE AMINOTRANSFERASE, PUTATIVE",0.99
same,fold change,"vs vehicle control, protein LMJF.25.1770 ENOYL-COA REDUCTASE, PUTATIVE",0.97
same,fold change,"vs vehicle control, protein LMJF.26.0170 60S RIBOSOMAL PROTEIN L7, PUTATIVE",0.85
same,fold change,"vs vehicle control, protein LMJF.26.1550 TRI[…] ALPHA SUBUNIT, MIT[…]-LIKE PROTEIN",1.09
same,fold change,"vs vehicle control, protein LMJF.26.1610 PROLINE OXIDASE, MITOCHONDRIAL PRECURSOR-LIKE PROTEIN",0.79
same,fold change,"vs vehicle control, protein LMJF.28.1950 X-PRO, DIPEPTIDYL-PEPTIDASE,SERINE PEPTIDASE, CLAN SC, FAMILY S15, PUTATIVE",0.96
same,fold change,"vs vehicle control, protein LMJF.31.1070 BIOTIN/LIPOATE PROTEIN LIGASE-LIKE PROTEIN",0.88
same,fold change,"vs vehicle control, protein LMJF.32.1370 HY[…], CONSERVED",0.92
same,fold change,"vs vehicle control, protein LMJF.34.0490 IMPORTIN BETA-1 SUBUNIT, PUTATIVE",1.14
same,fold change,"vs vehicle control, protein LMJF.34.4060 UBIQUITIN HYDROLASE, PUTATIVE,CYSTEINE PEPTIDASE, CLAN CA, FAMILY C19, PUTATIVE",0.88
same,fold change,"vs vehicle control, protein LMJF.36.1600 PROTEASOME ALPHA 1 SUBUNIT, PUTATIVE",0.98
same,fold change,"vs vehicle control, protein LMJF.[…] RIBOSOMAL PROTEIN S7, PUTATIVE",0.99
